Data as given in US9707267B2, “Beta-turn peptidomimetic cyclic compounds for treating dry eye” (Mimetogen Pharmaceuticals, Inc., priority 2008, dated 2017).
“And” between values parts separate entries of the source, which are not always exact repeats. Identical values can stand only once. Marks after values point to notes of the source that are not given here.

How the values were obtained:
Assay type in all cases: in vivo
[1] = tested on: Scopolamine Induced Rat Dry Eye Model; assay: Scopolamine induced rat dry eye model, tear break-up time (Example 5); details: for Tear Break-Up Time: ± SD
Procedure: (§1) Dry eye was induced using scopolamine hydrobromide (Sigma-Aldrich, St. Louis, Mo.), which was continuously and systemically delivered to the animals via an osmotic pump (2ML4 Alzet®; CedarLane, Burlington, Ontario) filled with scopolamine and implanted subcutaneously in the mid dorsal area between the scapulae. Scopolamine was delivered for a twenty-eight day period at 12.5 mg/day, which translated to 30.0±1.5 mg/kg via osmotic pump.
(§2) Treatments for G2-G6 continued daily for seventeen days (up to an including day twenty-one). Thereafter, treatments were terminated but the study continued for another week. During treatment, each animal was anesthetized in an isoflurane chamber. Once asleep, each animal received a 5 μL topical instillation of test article into the lower conjunctival sac of both eyes using a calibrated micropipette. If a clinical endpoint was also being tested, the test article was topically instilled at the end of the testing.
Tear break-up times were tested on day 13 (after 8 daily treatments), day 21 (after 16 daily treatments), and day 28 (after treatment was stopped for 7 days). TBUT was evaluated by instillation of 10 μL sodium fluorescein solution (0.2% in sterile saline) in the upper conjunctival sac of the anaesthetized animal. The lids were blinked manually to distribute the fluorescein with the tear film. Under the cobalt blue light of a portable slit lamp ophthalmoscope (Reichert Ophthalmic Instruments, Depew, N.Y.), the eye was held open and the time until one or more black streaks appeared in the precorneal tear film was recorded. For each eye, a minimum of triplicate readings were made with fresh fluorescein solution.

[2] = tested on: Scopolamine Induced Rat Dry Eye Model; assay: Scopolamine induced rat dry eye model, Schirmer test (Example 5); details: ± SD
[3] = tested on: Scopolamine Induced Rat Dry Eye Model; assay: Scopolamine induced rat dry eye model, mucin in tear fluid washings, ELLA (Example 5); details: for Tear Mucin: ± SD
Procedure: as §1, §2
Tear fluid washings were collected from all six groups of rats on day 12 (after 7 daily treatments), day 19 (after 14 daily treatments) and day 28 (after treatment was stopped for 7 days) after instillation of 5 μL sterile saline in the lower conjunctival sac of the anaesthetized animal. The lids were blinked gently to mix the tear film with the saline. The diluted tear fluid was collected with a 5 μL volume glass capillary tube (Drummond Scientific Co, Broomhall, Pa.) by capillary action from the tear meniscus in the lateral canthus. Approximately 4-5 μL were routinely collected. In very dry eyes, a second 5 μL aliquot of saline was instilled before collection.
The concentrations of mucin glycoprotein in the diluted tear fluid washings were determined by an enzyme-linked lectin assay (ELLA). A sample containing 3 μg total protein was diluted to 100 μL in carbonate buffer pH 9.2 and transferred to a 96-well polystyrene microtiter plate (Corning Life Sciences #2592, Fisher Scientific, Nepean, Ontario). A dilution series of bovine submaxillary mucin (Sigma, St. Louis, Mo.) was included on each plate as the standard. The plates were coated by evaporation at 37° C. overnight. After, the plates were washed three times with wash buffer [PBS containing 0.3% BSA, 0.05% Tween-20] then blocked for nonspecific binding with PBS containing 3% BSA and 0.05% Tween-20 at 37° C. for one hour. The wells were rinsed three times in wash buffer, and then incubated in 2 μg/mL biotinylated UEA-1 diluted in wash buffer (Vector Labs, Burlingame, Calif.) at 37° C. for one hour. The wells were rinsed three times in wash buffer, and then incubated in 1 μg/mL HRP-conjugated neutravidin diluted in wash buffer (Pierce, Rockford, Ill.) at 37° C. for one hour. After the wells were rinsed three times in wash buffer the color development was performed with TMB (Promega, Madison, Wis.) and stopped with 0.5N Sulfuric acid. The concentration of mucin in the tear fluid washings was calculated as the ng mucin divided by the volume of tear fluid washing in μL that gave 3 μg total protein.

[4] = 0.4% topical 1× daily Days 5-21, Day 28 (7 days after treatment stopped)
[5] = 1% dose vs untreated and saline control groups
[6] = 1.0% topical 1× daily Days 5-21, Day 28 (7 days after treatment stopped)
[7] = 2.5% topical 1× daily Days 5-21, Day 28 (7 days after treatment stopped)
[8] = 0.00053% topical 1× daily Days 5-21, Day 28 (7 days after treatment stopped)

## NCCCC[C@@H]1NC(=O)[C@H](CCC(=O)O)NC(=O)c2cc([N+](=O)[O-])ccc2OCCC(C(=O)NCC(=O)O)NC1=O (stereo partly shown) [Compound D3]
[1]; 0.4% topical 1× daily Days 5-21, Day 13
  Tear Break-Up Time: 4.5 ± 1.7^b seconds
[1]; 0.4% topical 1× daily Days 5-21, Day 21
  Tear Break-Up Time: 4.4 ± 1.7 s
[1]; [4]
  Tear Break-Up Time: 4.3 ± 0.8 s
[1]; [5]
  changes in TBUT at Day 28 as compared to Day 13 (in words): statistically significantly improved TBUT
[1]; 1.0% topical 1× daily Days 5-21, Day 21
  Tear Break-Up Time: 5.1 ± 1.9 s
[1]; [6]
  Tear Break-Up Time: 6.4 ± 1.2 s
[1]; 2.5% topical 1× daily Days 5-21, Day 13
  Tear Break-Up Time: 7.0 ± 2.3 s
[1]; 2.5% topical 1× daily Days 5-21, Day 21
  Tear Break-Up Time: 5.8 ± 2.1 s
[1]; [7]
  Tear Break-Up Time: 5.0 ± 1.3 s
[2]; 0.4% group, Day 2, before treatment start (day 5)
  Schirmer's Test: 9.6 ± 3.0 mm
[2]; 0.4% group, Day −1, presurgical, before treatment start (day 5)
  Schirmer's Test: 11.9 ± 4.4 mm and 11.9 ± 4.2 mm
[2]; 0.4% topical 1× daily Days 5-21, Day 5 (test before first instillation)
  Schirmer's Test: 7.9 ± 3.2 mm
[2]; 0.4% topical 1× daily Days 5-21, Day 7
  Schirmer's Test: 7.9 ± 1.6 mm
[2]; 0.4% topical 1× daily Days 5-21, Day 14
  Schirmer's Test: 8.6 ± 3.0 mm
[2]; 0.4% topical 1× daily Days 5-21, Day 20
  Schirmer's Test: 7.2 ± 1.8 mm
[2]; 0.4% topical 1× daily Days 5-21, Day 29 (after treatment stopped)
  Schirmer's Test: 9.4 ± 2.0 mm
[2]; 1.0% group, Day 2, before treatment start (day 5)
  Schirmer's Test: 9.8 ± 4.0 mm and 9.8 ± 3.8 mm
[2]; 1.0% group, Day −1, presurgical, before treatment start (day 5)
  Schirmer's Test: 11.3 ± 4.5 mm and 11.3 ± 3.0 mm
[2]; 1.0% topical 1× daily Days 5-21, Day 5 (test before first instillation)
  Schirmer's Test: 7.9 ± 2.3 mm
[2]; 1.0% topical 1× daily Days 5-21, Day 7
  Schirmer's Test: 9.5 ± 4.2 mm
[2]; 1.0% topical 1× daily Days 5-21, Day 14
  Schirmer's Test: 7.3 ± 2.3 mm
[2]; 1.0% topical 1× daily Days 5-21, Day 29 (after treatment stopped)
  Schirmer's Test: 9.0 ± 2.9 mm
[2]; 2.5% group, Day 2, before treatment start (day 5)
  Schirmer's Test: 9.8 ± 2.4 mm
[2]; 2.5% group, Day −1, presurgical, before treatment start (day 5)
  Schirmer's Test: 11.5 ± 2.2 mm and 11.5 ± 1.8 mm
[2]; 2.5% topical 1× daily Days 5-21, Day 5 (test before first instillation)
  Schirmer's Test: 9.6 ± 1.8 mm
[2]; 2.5% topical 1× daily Days 5-21, Day 20
  Schirmer's Test: 9.1 ± 2.3 mm
[2]; 2.5% topical 1× daily Days 5-21, Day 29 (after treatment stopped)
  Schirmer's Test: 7.7 ± 1.6 mm
[3]; 0.4% topical 1× daily Days 5-21, Day 12
  Tear Mucin: 2.7 ± 2.2 ng/µL
[3]; 0.4% topical 1× daily Days 5-21, Day 19
  Tear Mucin: 6.8 ± 3.2 ng/µL
[3]; [4]
  Tear Mucin: 4.4 ± 3.8 ng/µL
[3]; [5]
  changes in mucin production at Day 28 as compared to Day 12 (in words): statistically significantly increased mucin production
[3]; 1.0% topical 1× daily Days 5-21, Day 12
  Tear Mucin: 3.3 ng/µL and 3.3 ± 1.9 ng/µL
[3]; 1.0% topical 1× daily Days 5-21, Day 19
  Tear Mucin: 9.1 ng/µL and 9.1 ± 5.1 ng/µL
[3]; [6]
  Tear Mucin: 6.8 ng/µL and 6.8 ± 4.9 ng/µL
[3]; 2.5% topical 1× daily Days 5-21, Day 12
  Tear Mucin: 1.6 ± 0.9 ng/µL
[3]; 2.5% topical 1× daily Days 5-21, Day 19
  Tear Mucin: 6.5 ± 2.4 ng/µL
[3]; [7]
  Tear Mucin: 3.0 ± 1.1 ng/µL

## NGF: nerve growth factor (recombinant human), positive control
[1]; 0.00053% topical 1× daily Days 5-21, Day 13
  Tear Break-Up Time: 5.2 ± 1.6 s
[1]; 0.00053% topical 1× daily Days 5-21, Day 21
  Tear Break-Up Time: 4.7 ± 0.8 s
[1]; [8]
  Tear Break-Up Time: 4.2 ± 0.8 s
[2]; 0.00053% group, Day 2, before treatment start (day 5)
  Schirmer's Test: 9.9 ± 4.9 mm and 9.9 ± 4.8 mm
[2]; 0.00053% group, Day −1, presurgical, before treatment start (day 5)
  Schirmer's Test: 11.2 ± 3.7 mm and 11.2 ± 3.2 mm
[2]; 0.00053% topical 1× daily Days 5-21, Day 20
  Schirmer's Test: 7.1 ± 2.4 mm
[3]; 0.00053% topical 1× daily Days 5-21, Day 12
  Tear Mucin: 3.0 ± 2.3 ng/µL
[3]; 0.00053% topical 1× daily Days 5-21, Day 19
  Tear Mucin: 6.8 ± 3.8 ng/µL
[3]; [8]
  Tear Mucin: 2.4 ± 2.0 ng/µL
